Columns and labels:
Assay type in all cases: physicochemical
[1] = dry Sympatec PSD analysis (particle size distribution); conditions: for Particle Size, cumulative distribution Q3 X10 / Particle Size, cumulative distribution Q3 X50 / Particle Size, cumulative distribution Q3 X90: dry Sympatec PSD, after isolation / pre-storage sample
Source text: Particle size or particle diameter as used herein can be suitably determined by laser diffraction based methods, for example as described in ISO Standard 13320-1. Laser diffraction particle sizing apparatus such as the Malvern Mastersizer 2000™ can be used.

[2] = storage at 20% relative humidity for 48 hours (DVS, DSC, PSD, SEM); conditions: for Particle Size, cumulative distribution Q3 X10 / Particle Size, cumulative distribution Q3 X50 / Particle Size, cumulative distribution Q3 X90: dry Sympatec PSD, post-storage sample; for DSC trace of the stored sample / variation of particle size after storage (PSD): post-storage; for weight change during storage (DVS mass plot): storage at 20% RH for 48 hours
Protocol: In order to evaluate the effect of humidity on prolonged storage processed BDP hydrate was subjected to 20% relative humidity (RH) for 48 hours.
The sample recovered after storage was analysed by DSC, TGA, PSD and SEM.
In order to evaluate the effect of humidity on prolonged storage anhydrous BDP was subjected to 20% relative humidity (RH) for 48 hours. The pre-storage sample was characterized by TGA, DSC, PSD and SEM analysis.
The sample recovered after storage was analyzed by DSC, PSD and SEM.

[3] = microscope imaging / SEM of particles; conditions: for largest particles or clusters observed (microscope imaging / SEM): after supercritical CO2 isolation; for particle size in suspension prior to isolation (microscope imaging): partially agglomerated particles, before supercritical CO2 isolation
[4] = after supercritical CO2 isolation

Row | SMILES | Particle Size, cumulative distribution Q3 X10 [1] | Particle Size, cumulative distribution Q3 X50 [1] | Particle Size, cumulative distribution Q3 X90 [1] | Particle Size, cumulative distribution Q3 X10 ([2]; 20% RH for 48 hours) | Particle Size, cumulative distribution Q3 X50 ([2]; 20% RH for 48 hours) | Particle Size, cumulative distribution Q3 X90 ([2]; 20% RH for 48 hours) | DSC trace of the stored sample ([2]; 20% RH for 48 hours) | variation of particle size after storage (PSD) ([2]; 20% RH for 48 hours) | weight change during storage (DVS mass plot) [2] | largest particles by dry Sympatec PSD analysis ([1]; after supercritical CO2 isolation, bimodal distribution) | largest particles or clusters observed (microscope imaging / SEM) [3] | particle size in suspension prior to isolation (microscope imaging) [3] | stability on prolonged storage ([2]; 20% RH for 48 hours, compared with anhydrous BDP) | time to steady state in DVS mass plot ([2]; storage at 20% RH) | size of larger clusters or agglomerates by dry Sympatec PSD analysis [1, 4] | size of most particles by dry Sympatec PSD analysis [1, 4]
1 | CCC(=O)OCC(=O)[C@@]1(OC(=O)CC)[C@@H](C)C[C@H]2[C@@H]3CCC4=CC(=O)C=C[C@]4(C)[C@@]3(Cl)[C@@H](O)C[C@@]21C [anhydrous BDP, anhydrous beclomethasone diproprionate] | 0.43 μ | 1.10 μ | 2.24 μ | 0.42 μ | 1.07 μ | 2.10 μ | formation of BDP hydrate | no significant variation of particle size | considerable weight changes | – | – | – | – | – | – | –
2 | CCC(=O)OCC(=O)[C@@]1(OC(=O)CC)[C@@H](C)C[C@H]2[C@@H]3CCC4=CC(=O)C=C[C@]4(C)[C@@]3(Cl)[C@@H](O)C[C@@]21C [Comparative Example 1] | 1.26 μ | 12.58 μ | 61.27 μ | – | – | – | – | – | – | up to 150 μm | up to 100 μm | up to 5 μm | – | – | – | –
3 | CCC(=O)OCC(=O)[C@@]1(OC(=O)CC)[C@@H](C)C[C@H]2[C@@H]3CCC4=CC(=O)C=C[C@]4(C)[C@@]3(Cl)[C@@H](O)C[C@@]21C.O [BDP hydrate] | 0.51 μ | 1.35 μ | 3.17 μ | 0.51 μ | 1.37 μ | 2.95 μ | no variation in the thermal behavior | no significant variation of particle size | considerable weight loss due to partial dehydration | – | – | – | higher stability on prolonged storage than anhydrous BDP | about 1500 minutes | – | –
4 | CCC(=O)OCC(=O)[C@@]1(OC(=O)CC)[C@@H](C)C[C@H]2[C@@H]3CCC4=CC(=O)C=C[C@]4(C)[C@@]3(Cl)[C@@H](O)C[C@@]21C [Comparative Example 2] | 0.84 μ | 3.58 μ | 8.76 μ | – | – | – | – | – | – | – | up to 10 μm | up to 5 μm | – | – | > 20 μm | ~4 μm

Source: patent publication US20110045086A1, “Steroid Nebuliser Formulation” (BREATH LTD, priority 2008, published 2011)
